Reference: patent publication US20090054317A1 (priority 2006, published 2009)

Tested on: toxin-induced cell death in RAW264.7 cells
Conditions: mouse

## CC(=O)N[C@@H](C)C(=O)N[C@@H](Cc1c[nH]c2ccccc12)C(=O)N1CCC[C@H]1C(=O)N[C@@H](CC(C)C)C(=O)N[C@@H](CO)C(=O)N[C@@H](CCC(N)=O)C(=O)N[C@@H](CC(C)C)C(=O)N[C@@H](CC(=O)O)C(=O)N[C@@H](Cc1c[nH]cn1)C(=O)N[C@@H](CO)C(=O)N[C@@H](Cc1ccc(O)cc1)C(=O)N[C@@H](CC(N)=O)C(=O)N[C@@H](CS)C(N)=O [corresponding monovalent peptide]
  IC50: > 2000 µM
